Measurements: ChEMBL document CHEMBL5537152, “Targeted Degradation of PCSK9 In Vivo by Autophagy-Tethering Compounds” (J Med Chem, 2024)

Assays:
[1] = tested on: Mus musculus; experiment: Synergistic antiatherosclerotic activity in hypercholesterolemic ApoE-/- mouse model assessed as decrease in plasma LDL-C level at 15 mg/kg, ip administered daily for 3 weeks; type: functional; set-up: scale not given: the % may be the effect or the level left
[2] = tested on: Mus musculus; experiment: Antiatherosclerotic activity in hypercholesterolemic ApoE-/- mouse model assessed as decrease in plasma LDL-C level at 15 mg/kg/day, ip measured after 21 days relative to control; type: functional; details: time 21 day

## CCC(C)(C)C(=O)O[C@H]1C[C@@H](C)C=C2C=C[C@H](C)[C@H](CC[C@@H]3C[C@@H](O)CC(=O)O3)[C@H]21 [SIMVASTATIN]
[1]
  Activity: 23.59%
[2]
  Efficacy: 23.59%
